Test results from US9592223B2, “Small molecule inhibitors of MALT1” (Cornell University, priority 2012, dated 2017).

Experiments:
[1] = system: MALT1^C464A (inactive mutant) NF-κB activation; assay: NF-κB reporter assay in 293T cells, PMA/ionomycin, BCL10 and MALT1 C464A; format: cell-based; conditions: pre-treatment
Description: Antigen receptor-mediated NF-κB signaling partly depends on MALT1 activity (Ruefli-Brasse et al., 2003; Ruland et al., 2003). […] First, 293T cells were transfected with the NF-κB reporter vector (NF-κB)5-luc2CP-pGL4 (harboring 5 copies of the NF-κB consensus response element and a destabilized Firefly luciferase) and TK-pRL control together with plasmids expressing BCL10 and either MALT1^WT or MALT1^C464A. […] HBL-1 was transfected with the reporter construct (NF-κB)5-luc2CP-pGL4 and TK-pRL control.
Reporter assays were performed in 293T cells seeded at a density of 2×10^5 cells per well of a 12-well dish. 100 ng of (NF-κB)5-Luc2CP-pGL4 and 10 ng of TK-Renilla internal control plasmid were cotransfected along with 25 ng of the indicated plasmids (MIGR1-MALT1^WT or MIGR1-MALT1^C464A and pcDNA4-Flag-Bcl10) using Lipofectamine 2000 (Invitrogen). Lysates were submitted to dual luciferase assays following manufacturer's protocol (Promega). In HBL-1, 5 μg of (NF-κB)5-Luc2CP-pGL4 and 50 ng of TK-Renilla internal control plasmid per 5×10^6 cells were cotransfected using nucleofection (Amaxa, Lonza, Basel, Switzerland). Forty-eight hours after transfection, cells were plated at a density of 5×10^4 cells per well of a 24-well plate and treated as indicated. Lysates were submitted to dual luciferase assays following manufacturer's protocol (Promega).

HBL-1 and TMD8 cells = assay: Trypan blue exclusion and Annexin V+ DAPI- apoptosis over 14 days, ABC-DLBCL lines; format: cell-based, human; conditions: treated daily at GI25 and GI50, every 48 hr for 14 days
Description: (§1) Cell proliferation was examined using the CFSE dilution assay by flow cytometry on viable cells at 48, 72 and 96 h. […] Trypan blue exclusion and apoptosis assessed by Annexin V^+ DAPI^− flow cytometry was measured every 48 hr for a period of 14 days.
(§2) Apoptosis was assessed by AnnexinV-APC/DAPI (BD Pharmingen) staining followed by flow cytometry.

[2] = system: ABC-DLBCL cell lines (HBL1 and TMD8); assay: Caspase-3/7 cleavage assay for apoptosis; format: cell-based, human
OCI-Ly1 cells = assay: Trypan blue exclusion and Annexin V+ DAPI- apoptosis over 14 days, control line; format: cell-based, human; conditions: treated daily at the higher doses used for TMD8, 14 days
Description: as §1, §2

Caspase-9 = Caspase-9 (Homo sapiens, UniProt P55211); assay: Caspase selectivity; format: biochemical
HBL-1, TMD8 and OCI-Ly10 = assay: CFSE dilution assay by flow cytometry, ABC-DLBCL lines; format: cell-based, human; conditions: viable cells at 48, 72 and 96 h
Description: as §1
CFSE covalently labels long-lived intracellular molecules with carboxyfluorescein. Following each cell division, fluorescent molecules dilute in daughter cells, allowing comparative study of the kinetics of cell division. Cells were stained with DAPI (Sigma), followed by flow cytometry. DAPI^neg cells were gated for analysis.

[3] = system: NF-κB signaling gene signatures; assay: Gene expression profiling and GSEA in HBL-1 and TMD8 cell lines; format: cell-based, human; conditions: 8 hr, HBL-1 200 nM, TMD8 500 nM
Description: The impact of MI-2 on NF-κB signaling was further characterized by gene expression profiling. […] Z-VRPR-FMK was previously shown to attenuate the NF-κB signature in ABC-DLBCL cell lines (Hailfinger et al., 2009). […] GSEA was next performed using two independent ABC-DLBCL NF-κB gene expression signatures derived from either OCI-Ly3 and OCI-Ly10 or HBL-1 cell lines.
RNA integrity was determined using the RNA 6000 Nano LabChip Kit on an Agilent 2100 Bioanalyzer (Agilent Technologies, Santa Clara, Calif.). Samples were processed following Illumina recommendations and cRNA was hybridized to the HumanHT-12 v4 Expression BeadChip (Illumina, San Diego, Calif.). Arrays were scanned on the iScan system. Data pre-processing and quality control were performed using GenomeStudio. The data were log2-transformed combined with quantile normalization (Du et al., 2008). GEO accession number GSE40003.
In order to determine the biological significance of the results, enrichment tests with respect to sets of related genes were carried out. To this end, we used GSEA (Gene Set Enrichment Analysis) software, and datasets were pre-ranked by fold change value (Subramanian et al., 2005). The p-values for each gene-set were computed on the basis of 1,000 iterations and multiple hypotheses testing correction for FDR calculation (Storey and Tibshirani, 2003).

[4] = system: cleavage of A20, BCL10 and RELB; assay: Cleavage of MALT1 substrates with MG-132 in HBL-1 and TMD8 cell lines, Western blot; format: cell-based, human; conditions: 2 μM for 30 minutes, then 5 μM MG-132 for one or two hour
Description: As these proteins are directed to proteasomal degradation after cleavage (Coornaert et al., 2008; Hailfinger et al., 2011; Rebeaud et al., 2008), we used the proteasome inhibitor MG-132 to facilitate visualization of cleavage products (FIG. 4A).
Equal amounts of total protein (20-75 μg) were separated on sodium dodecyl sulfate-polyacrylamide gel electrophoresis (SDS-PAGE), and electrotransferred onto nitrocellulose membranes. Membranes were incubated with primary antibodies (MALT1, BCL-10, CYLD from Santa Cruz Biotechnologies, Santa Cruz, Calif.; A20 from eBioscience, San Diego, Calif.; phospho-IκB-α, IκB-α, c-REL, RELB from Cell Signaling, Danvers, Mass. and α-Tubulin from Sigma), followed by secondary antibodies conjugated to horseradish peroxidase, which were detected by chemiluminescence (Pierce, Thermo Scientific, Rockford, Ill.).

Chain of Caspase-9 (P55211 whole entry, species assumed): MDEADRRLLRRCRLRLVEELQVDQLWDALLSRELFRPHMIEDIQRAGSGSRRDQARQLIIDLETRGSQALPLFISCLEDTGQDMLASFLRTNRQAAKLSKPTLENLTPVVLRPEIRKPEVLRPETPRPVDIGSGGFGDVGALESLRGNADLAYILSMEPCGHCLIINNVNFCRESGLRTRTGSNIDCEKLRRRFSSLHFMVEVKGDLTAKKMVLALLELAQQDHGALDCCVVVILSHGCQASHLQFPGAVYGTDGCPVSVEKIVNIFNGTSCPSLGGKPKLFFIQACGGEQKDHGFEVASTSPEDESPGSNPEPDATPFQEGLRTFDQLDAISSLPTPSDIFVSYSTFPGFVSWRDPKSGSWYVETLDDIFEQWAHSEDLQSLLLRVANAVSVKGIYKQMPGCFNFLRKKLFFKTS

For COCCOc1nc(-c2ccc(Cl)c(Cl)c2)n(-c2ccc(NC(=O)CCl)cc2)n1 [MI-2], the “NF-κB induction by PMA/ionomycin stimulation” value [1] was “did not significantly affect”, the viability and apoptosis (HBL-1 and TMD8 cells) was “profoundly suppressed” and the “apoptosis (Caspase-3/7 cleavage)” value [2] was “dose dependent apoptosis within 48 hr”. For the same molecule, the viability and apoptosis (OCI-Ly1 cells) was “no effect”, the “activity against Caspase-9” value (Caspase-9) was “little activity” and the “cell proliferation (CFSE dilution)” value (HBL-1, TMD8 and OCI-Ly10) was “substantially inhibited proliferation”. For the same molecule, the “GSEA of ABC-DLBCL NF-κB gene expression signatures” value [3] was “significant enrichment of these NF-κB gene sets among genes downregulated”, the “GSEA of Z-VRPR-FMK signature” value [3] was “significantly enriched among genes downregulated after MI-2-treatment” and the “cleaved forms of A20, BCL10 and RELB” value [4] was “diminished the abundance of cleaved forms and/or increased the abundance of full-length proteins”.
